Experimental data as given in US7642283B2, “Mitochrondrial permeability transition pore affinity labels and modulators” (Hoffmann-La Roche Inc., priority 2003, dated 2010).

What was measured:
[1] = system: mitochondrial respiration; assay: Mitochondrial respiration (oxygen consumption); format: biochemical; settings: at concentrations completely blocking MPTP
Procedure: Isolated liver mitochondria (˜0.5 mg protein ml^−1) were incubated in a batch mode in the presence of 20 nM [^3H]TPP ([^3H]Tetraphenylphosphonium ([^3H]TPP, 24-29 Ci/mmol) from Amersham Biosciences, Switzerland) for 15 min at 25° C. Aliquots (100 μl) of the mixture were then distributed into 96-well plates containing 100 μl of the test compound and the incubation prolonged for 15 min at 25° C. Samples were then filtered through 0.3% (v/v) polyethyleneimmine-treated GF/B glass fiber filters using a 96-channel cell harvester and the filters washed twice with 1 ml of buffer. Fifty μl of MICROSCINT 40 (Packard) were then added to each well, before counting for radioactivity in a TopCount scintillation counter (Packard). Non-specific uptake was determined in the presence of 1 mM unlabeled TPP or 1 μM carbonylcianide-p-trifluoromethoxyphenyl hydrazone (FCCP). Mitochondrial oxygen consumption was measured polarographically at 25° C. using a Clark-type electrode.
Compounds found to inhibit MPTP where then counter-screened using uptake of the potentiometric probe [^3H]-TPP (Hoek, J. B., Nicholls, D. G. & Williamson, J. R. (1980) J. Biol. Chem. 255, 1458-1564) for determining in a semi-quantitative, but rapid way whether they interfered with mitochondrial respiration (e.g. protonophores). […]

YVDAC1 = target: T1, YVDAC1 (Saccharomyces cerevisiae, UniProt P04840); assay: Affinity labeling of yeast mitochondria (Δpor1 and Δpor1 expressing YVDAC1); format: binding; settings: Δpor1 yeast mitochondria expressing YVDAC1; increasing concentration
T1 construct: expressed in transfected cells; host or cells: Δpor1 yeast strain carrying a YVDAC1 plasmid; isolated mitochondria
T1 sequence (P04840 2-283): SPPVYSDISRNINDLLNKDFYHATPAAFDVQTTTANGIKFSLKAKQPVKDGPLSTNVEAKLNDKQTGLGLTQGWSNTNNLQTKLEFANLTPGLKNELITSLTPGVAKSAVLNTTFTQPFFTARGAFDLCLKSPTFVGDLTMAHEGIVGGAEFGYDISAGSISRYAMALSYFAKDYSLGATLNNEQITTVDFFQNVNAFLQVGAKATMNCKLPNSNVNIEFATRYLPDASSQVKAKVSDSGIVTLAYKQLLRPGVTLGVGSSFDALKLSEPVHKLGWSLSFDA
Description: FIG. 9: Spiro[cyclopentane-1,5′-[5H]dibenzo[a,d]cyclohepten]-2-one,10′,11′-t2-10′,11′-dihydro-3-methylene affinity labeling of yeast mitochondria lacking the por1 gene for YVDAC1 (Δpor1) and into Δpor1 yeast mitochondria transfected with YVDAC1 in presence or absence of different concentrations of Spiro[cyclopentane-1,5′-[5H]dibenzo[a,d]cyclohepten]-2-one,10′,11′-dihydro-3-methylene (unlabeled). The fluorograms of gels after SDS-PAGE are shown. Mitochondria isolated from yeast strains were incubated in the presence of 10 nM Spiro[cyclopentane-1,5′-[5H]dibenzo[a,d]cyclohepten]-2-one,10′,11′-t2-10′,11′-dihydro-3-methylene for 15 min at 25° C. Numbers indicate the concentrations (μM) of the various compounds added.
To further confirm VDAC1 as the protein target of Spiro[cyclopentane-1,5′-[5H]dibenzo[a,d]cyclohepten]-2-one,10′,11′-dihydro-3-methylene-, the labeling of proteins in mitochondria prepared from yeasts by Spiro[cyclopentane-1,5′-[5H]dibenzo[a,d]cyclohepten]-2-one,10′,11′-t2-10′,11′-dihydro-3-methylene- was investigated. […] Increasing concentration of unlabelled Spiro[cyclopentane-1,5′-[5H]dibenzo[a,d]cyclohepten]-2-one,10′,11′-dihydro-3-methylene-inhibited incorporation of the radioactivity (FIG. 9).

Effect of unlabelled compound on incorporation of radioactivity (YVDAC1): inhibited
SMILES: C=C1CCC2(C1=O)c1ccccc1CCc1ccccc12 [Spiro[cyclopentane-1,5′-[5H]dibenzo[a,d]cyclohepten]-2-one,10′,11′-dihydro-3-methylene-]
Inhibition of mitochondrial respiration (basal, ADP-induced and uncoupled) [1]: did not inhibit
